Laboratory results taken from the OligoGym collection.
These antisense oligonucleotides have a phosphorothioate backbone; sugars and methylation of C are not fully specified.

target: CTNNB1; details: ASO
Note: test concentration or dose not given here.

| Sequence | remaining target (mRNA or protein) (fraction of control) |
| --- | --- |
| AATCAGCTTGAGTAGCCATT | 0.31 |
| TGTTTTCAATGGGAGAATAA | 0.63 |
| GCCATTGTCCACGCTGGATT | ≥ 1 |
| GTACGCACAAGAGCCTCTAT | 0.29 |
| CATTGTCCACGCTGGATTTT | 0.72 |
| AGGCTAGGGTTTGCTAAATT | 0.47 |
| CCCCTCGCTCTCCGCTCCCG | 0.07 |
| TAGCCATTGTCCACGCTGGA | 0.23 |
| AGCCCACCAGCTAAACGCAC | 0.4 |
| AGAAAATCCCTGTTCCCACT | 0.32 |
| AGGTCCCAGCGGTACAACGA | 0.21 |
| TTATTGCAAGTGAGGTTAGA | 0.51 |
| TTGCTGCCAGTGACTAACAG | 0.46 |
| GCACGAACAAGCAACTGAAC | 0.37 |

target: ETS2; details: ASO

| Sequence | remaining target (mRNA or protein) (fraction of control) |
| --- | --- |
| AGCTGTCCGCACCGTTCT | ≥ 1 |
| TCGTAATAGTAGCGTAAG | 0.85 |
| GGACGGCCGAGTGGAGGG | 0.81 |
| GAGGCAGCCTGGTCAAGA | 0.61 |
| CCAGAGACGATCAGGGAG | ≥ 1 |
| GGCCACTTTCCTGGACAT | ≥ 1 |
| CGGCGCTTGGTCGGGACG | ≥ 1 |
| TGCCAGCTCCAGAAAGCG | 0.84 |
| AATAGTCTGTGTGTGTCC | ≥ 1 |
| TTCTTTGGAATGCCCAGG | 0.93 |
| CTTAAAAGCACTGTGAGT | 0.63 |
| GGGTCACTCCTCTCTTGG | 0.75 |
| TTTCCTCTTTCCCCACCG | ≥ 1 |
| TGTTCCCAGAGAATGTCA | 0.63 |
| TTGCAGTGTTTGCTCTTC | ≥ 1 |
| ATCCGTCTCCAGTCCAGC | 0.8 |
| GGGACCCATCAAAGGTGT | 0.66 |
| CAAGTTGCTGCCTGGGAA | 0.39 |
| GAAGCCACTGGCATACCT | 0.64 |
| GGCTGGCGCTTGAGTGTC | 0.7 |

| Sequence | remaining target (mRNA or protein) (fraction of control) |
| --- | --- |
| GGCCGGCTCAGGGTGGTC | 0.51 |
| TAAGGCTTGACTCATCAC | ≥ 1 |
| CACAGTTGGCGGAGTCAT | 0.45 |
| CTGCCTTTCCTGGGTCCT | ≥ 1 |
| AACCCGTTGCACATCCAG | ≥ 1 |
| CATGGTTGTTTCCTTCCC | ≥ 1 |
| CATTCATGCCGAACCTCT | ≥ 1 |
| GCAGGTATAACTGGTTTG | ≥ 1 |
| GTGCCAAAACCTAATGTA | 0.66 |
| GCGTGCAGTTCCTCGGGC | 0.81 |
| TGGCTTATTGAGGCAGAG | 0.94 |
| CCGACGTCTTGTGGATGA | 0.45 |
| GGAGCTGAGCCGAGACTT | 0.51 |
| GTCCATATTCTTGATTCC | ≥ 1 |
| CGTCCCACGGACTGCCAG | ≥ 1 |
| TTTCTTGGTTTTCTTTGA | ≥ 1 |
| GGAACGGAGGTGAGGTGT | 0.61 |
| CAGCTCCAGGAGAAACTG | ≥ 1 |
| GGGTAATTCTGTGTCTGC | 0.96 |
| AGGAGCGGGAGGAGGAGG | 0.87 |

target: MAP2K7; details: ASO

| Sequence | remaining target (mRNA or protein) (fraction of control) |
| --- | --- |
| GGTTGGCCGCCGGCCAAAGC | ≥ 1 |
| CACCTCCAGCGTCTCGTAGC | 0.45 |
| CCCCGAGAAGCCCATGTGTC | 0.69 |
| CTTTAGTAAGGCAGTCTTTG | 0.7 |
| TCCAGGGAGGACGCCGCCAT | 0.64 |
| GACGCCGCCATCTTCCCCGC | 0.7 |
| CCGCCATCTTCCCCGCCGCC | 0.9 |
| GCACCACATCCAGGTCCATG | 0.58 |
| ACTCAGGTCTTCGCCATGAC | 0.76 |
| TTCTCCTGCTTCAGCTTTGC | 0.69 |
| GCCATCTTCCCCGCCGCCAC | 0.75 |
| CGCCGCCATCTTCCCCGCCG | 0.99 |
| AGAGCTTGATCTGGCCCCGC | 0.84 |
| AGTCCGCGGTGACTCAGGTC | 0.87 |
| ACTGTCCTGTTGCCAGCTCC | 0.58 |
| GGTAGTACAGCGCCTTCACA | 0.82 |
| GGAGCGCCGCATTTGCTTAA | 0.75 |
| TCTTCCCCGCCGCCACCGCC | 0.77 |
| TAGCCCGTCTGCTTCATGAT | 0.76 |
| ATGGCGATGAAGACGTCCGT | 0.84 |

| Sequence | remaining target (mRNA or protein) (fraction of control) |
| --- | --- |
| TGAACGTCCCAAAGCACTGC | 0.86 |
| AGACAAACACCTCGTGCCGA | 0.88 |
| GGGAGGACGCCGCCATCTTC | 0.34 |
| CCCAGGCTCCATACGTCGGC | 0.74 |
| GGAGGGCTTGACGTCGCGGT | 0.96 |
| AGGCGGCACAGCCGGCGCTC | 0.95 |
| GAGTCCACCAGGCGGCCGCT | 0.66 |
| TCATAGTCCGGCTTGGTGGG | ≥ 1 |
| TCCAGGTTGAGGTCGATCCT | 0.68 |
| CATCTTCCCCGCCGCCACCG | 0.68 |
| GCGGGACAGCTTCTGTTCCA | ≥ 1 |
| CGCGCACCGCCCGGCCGCCC | 0.46 |
| TTCCGGAAGCGCATCTTCCA | 0.86 |
| CTGAGGATGGCGAGCGGCTG | ≥ 1 |
| CAGGGAGGACGCCGCCATCT | ≥ 1 |
| CTGGCTCAAGGAACGCCGTT | ≥ 1 |
| CGTCAGTCCGGCAGACAAAC | 0.91 |
| AGGACGCCGCCATCTTCCCC | 0.7 |
| TGTCATCTTGCCCAGAATGC | 0.68 |
| GCCGTTAGTCCGCGGTGACT | 0.72 |

target: GNAI3; details: ASO

| Sequence | remaining target (mRNA or protein) (fraction of control) |
| --- | --- |
| CCATGCTTCTCAATAAAG | 0.58 |
| TGGTCTTCACTCTCGTCC | 0.21 |
| AATGTAGTTAGACTGGGA | 0.46 |
| TATTGGAACCTGTGTATT | 0.54 |
| AAGTTCCCTAATACAAAA | 0.85 |
| CATGAGACAGCAAAAGGT | 0.92 |
| GGTATCTTTTCTTCTGTT | 0.48 |
| TAAAGAGTGCTAAGATTC | 0.72 |
| TTAAGAAATCCAAGTGAT | ≥ 1 |
| AGAGAATGATTGAAGTTT | 0.99 |
| TTAAGGAAGAGAATGATT | ≥ 1 |
| AGCCAGAACAAGGTCATA | 0.88 |
| ATTGTTTACATTCATCCT | ≥ 1 |
| CCACCATCTCGCCATAAC | 0.77 |
| CTCAACACTCCACACTGT | 0.9 |
| AAATGTGTTTCTACAATG | 0.9 |
| GACTCCTTCTTCAGCACT | 0.48 |
| AGGTCATAATCACTGAGG | 0.75 |
| TAATTGCTGTCACTCCCT | 0.65 |
| ATCTTGCTTCGCTCCACT | 0.63 |

| Sequence | remaining target (mRNA or protein) (fraction of control) |
| --- | --- |
| TAAAGTTATTCTTCTCTT | 0.88 |
| TAACGGACTCCTCTTTAT | 0.25 |
| GTCTGACTTTAGCATCTC | 0.56 |
| CATCTTGCTGAGTTGGAA | 0.34 |
| AAGGTGTCTGGTCTCAAC | 0.56 |
| AATTCCAATGTCTGACTT | 0.51 |
| CAATCTTTAGCCGTCCCA | 0.49 |
| ACACTGTAGTAACTTTCA | 0.6 |
| CAATAAAGTCCACATTCC | ≥ 1 |
| GAGTTGGAATGTAGTTAG | 0.56 |
| ACTCCACACTGTAGTAAC | 0.45 |
| CTTCTCAATAAAGTCCAC | 0.65 |
| TCAACTTCACATCTTCCA | 0.62 |
| GTGTTTCTACAATGCCTG | 0.37 |
| ATCTCCTTGGTATCTTTT | 0.33 |
| AATGATTGAAGTTTCTGT | 0.73 |
| TGGCACAGGTGAAGTGAG | 0.29 |
| TCACTCTCGTCCGAAGAA | 0.41 |
| ACAATGCCTGTGGTCTTC | ≥ 1 |
| ATGCAGCACCTCAACTTC | 0.4 |

target: GNAI1; details: ASO

| Sequence | remaining target (mRNA or protein) (fraction of control) |
| --- | --- |
| CAAGTCATTCAAATAGTA | ≥ 1 |
| TCTTTTATTGAGGTCTTC | ≥ 1 |
| GCATTCGGTTCATTTCTT | 0.58 |
| TAAAAGAGACCACAATCT | 0.81 |
